In experiment [1] the test system is A-549 cells. The experiment can be described thus: Acetylation of sirtuin targets by Western blot, A-549. In kind it is cell-based, human. The conditions noted are these: A-549, 5 and 50 µM, 8 h. As to the method: Figure 5 Effect of eurochevalierine on the acetylation status of sirtuin targets. SK-MEL-28, U-373, and A-549 cells were treated with 5 and 50 µM eurochevalierine (EU) for 8 h. Acetylation of histone H4 (AcH4), histone H3 at lysine 56 (AcH3K56), and α-tubulin (Ac α-tubulin) was analyzed via Western blot. β-actin and histone H1 were used as loading controls for the analysis of total and acid extracts, respectively. SAHA (S, 1 µM) was used as a reference HDAC inhibitor. Blots are representative of three independent experiments.
Total proteins were extracted using the MPER® reagent (Thermo-scientific, Erembodegem-Aalst, Belgium) supplemented by 1× protease inhibitor cocktail (Complete EDTA-free, Roche, Prophac, Luxembourg, Luxembourg) according to manufacturer’s instructions. Histones were extracted as previously described. Western blots were carried out as previously reported.
Corresponding secondary antibodies were from Santa Cruz Biotechnology.
(In western blotting, separated proteins are transferred to a membrane and probed.)

The target of a further experiment is T1, HDAC6 (Homo sapiens, UniProt Q9UBN7).
T1 sequence (Q9UBN7 1-1215): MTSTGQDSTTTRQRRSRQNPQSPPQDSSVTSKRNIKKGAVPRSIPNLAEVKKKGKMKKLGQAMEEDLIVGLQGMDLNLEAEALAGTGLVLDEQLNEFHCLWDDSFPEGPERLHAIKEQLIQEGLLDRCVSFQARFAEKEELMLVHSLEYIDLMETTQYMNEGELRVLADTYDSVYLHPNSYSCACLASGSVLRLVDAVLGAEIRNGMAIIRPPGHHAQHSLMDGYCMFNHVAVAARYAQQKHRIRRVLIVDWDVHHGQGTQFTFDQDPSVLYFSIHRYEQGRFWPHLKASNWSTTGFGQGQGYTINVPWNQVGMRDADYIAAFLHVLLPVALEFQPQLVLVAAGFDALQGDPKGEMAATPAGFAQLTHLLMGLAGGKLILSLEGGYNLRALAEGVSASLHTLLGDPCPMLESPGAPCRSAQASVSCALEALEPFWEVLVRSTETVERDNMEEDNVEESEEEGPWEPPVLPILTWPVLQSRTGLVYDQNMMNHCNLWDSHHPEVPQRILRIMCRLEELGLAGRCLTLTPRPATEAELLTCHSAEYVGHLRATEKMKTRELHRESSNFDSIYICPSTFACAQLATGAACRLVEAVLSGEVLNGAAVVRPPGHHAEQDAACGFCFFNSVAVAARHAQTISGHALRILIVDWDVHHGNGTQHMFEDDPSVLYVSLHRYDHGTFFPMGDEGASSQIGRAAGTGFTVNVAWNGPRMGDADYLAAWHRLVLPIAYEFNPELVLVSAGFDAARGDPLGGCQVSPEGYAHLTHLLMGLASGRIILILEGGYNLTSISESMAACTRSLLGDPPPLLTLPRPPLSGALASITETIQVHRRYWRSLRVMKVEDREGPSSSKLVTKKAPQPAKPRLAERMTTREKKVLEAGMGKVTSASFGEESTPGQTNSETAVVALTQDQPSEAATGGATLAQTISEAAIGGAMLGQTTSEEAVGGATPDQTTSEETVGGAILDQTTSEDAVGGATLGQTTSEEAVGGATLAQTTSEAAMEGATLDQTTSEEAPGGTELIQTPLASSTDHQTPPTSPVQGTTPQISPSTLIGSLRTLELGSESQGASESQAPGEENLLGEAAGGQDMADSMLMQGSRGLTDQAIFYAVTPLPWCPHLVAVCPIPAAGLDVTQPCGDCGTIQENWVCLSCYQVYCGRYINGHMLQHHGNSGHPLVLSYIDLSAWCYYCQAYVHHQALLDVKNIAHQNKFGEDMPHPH
The experiment is described as follows: Selective in vitro HDAC activity assay, recombinant HDAC6. In kind it is biochemical. As to the method: (§1) (a) In vitro total HDAC activity was evaluated using K-562 nuclear extracts in the presence of various concentrations of eurochevalierine. (b) Selective in vitro HDAC activity assays were carried out using selected recombinant HDAC proteins in the presence of various concentrations of eurochevalierine. Results are reported as percent of DMSO vehicle control and expressed as the mean ± SD of three independent experiments. * and ** indicate p < 0.05 and p < 0.01 versus untreated cells, respectively.

The test system of experiment [2] is A-549 cells. The experiment is described as follows: Sub-G1 fraction by PI flow cytometry, A-549. To be noted: A-549, 50 µM, 72 h. In kind it is cell-based, human. As to the method: Figure 2 Effect of eurochevalierine on cell cycle distribution. Cells were treated with 50 µM eurochevalierine for 72 h and then stained with propidium iodide (PI), and DNA content was measured by flow cytometry. (a) Cell cycle distribution profile in A-549 cells. Results of three independent experiments are represented on the same graph. (b) Quantification of the number of cells in sub-G1 fraction as a percentage of the total cell population. Results are expressed as mean ± SD of at least three independent experiments.
Cells were collected, fixed, and stained with the APO AF TUNEL detection kit (BD, Erembodegem, Belgium) allowing analysis of both apoptosis and cell cycle at the same time. The experiment was conducted accordingly to the procedure of the manufacturer. Data were obtained through flow cytometry with a Cell Lab Quanta apparatus (Analis, Suarlee, Belgium).
(In general: In flow cytometry, cells or beads pass a laser one at a time.)

The target in the next experiment is T2, HDAC10 (Homo sapiens, UniProt Q969S8).
T2 sequence (Q969S8 1-669): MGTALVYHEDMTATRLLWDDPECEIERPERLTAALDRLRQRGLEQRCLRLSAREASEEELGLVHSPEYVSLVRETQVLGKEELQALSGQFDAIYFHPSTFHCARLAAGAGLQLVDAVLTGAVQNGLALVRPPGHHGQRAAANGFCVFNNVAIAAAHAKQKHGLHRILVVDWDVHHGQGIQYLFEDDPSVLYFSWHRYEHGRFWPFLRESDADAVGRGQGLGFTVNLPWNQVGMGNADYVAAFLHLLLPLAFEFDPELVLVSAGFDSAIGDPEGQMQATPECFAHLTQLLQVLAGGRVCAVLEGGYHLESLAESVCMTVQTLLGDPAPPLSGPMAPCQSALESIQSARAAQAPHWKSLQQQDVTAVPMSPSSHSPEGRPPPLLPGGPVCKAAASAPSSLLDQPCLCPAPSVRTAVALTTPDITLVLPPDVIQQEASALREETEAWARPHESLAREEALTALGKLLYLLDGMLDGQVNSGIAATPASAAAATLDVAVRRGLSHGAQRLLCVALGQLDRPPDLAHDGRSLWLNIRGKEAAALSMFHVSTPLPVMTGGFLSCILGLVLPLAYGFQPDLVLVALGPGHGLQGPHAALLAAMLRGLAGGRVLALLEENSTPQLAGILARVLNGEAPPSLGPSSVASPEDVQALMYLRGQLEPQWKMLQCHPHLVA
The experiment can be described thus: Selective in vitro HDAC activity assay, recombinant HDAC10. In kind it is biochemical. To be noted: 100 µM. As for the experimental part: as §1

The values below come from publication PMC6017873 (Molecules : A Journal of Synthetic Chemistry and Natural …, 2018).

Take `C=C(C)[C@@H]1CC[C@@H](C)[C@@]2(O)[C@@H]1C=C(C)[C@@H](OC(C)=O)[C@@H]2OC(=O)[C@H](CC(=O)c1ccccc1NC)NC=O` [Eurochevalierine, eurochevalierine]: the “acetylation of sirtuin targets (AcH4, AcH3K56, Ac α-tubulin)” value in the experiment on A-549 cells [1] was “robust and dose-dependent increase”. Further, at HDAC6, the inhibition (commonly how much of the control response was suppressed) at 100 µM was ~36%. In the experiment with A-549 cells [2], the sub-G1 fraction result is “did not increase the sub-G1 fraction”. Further, the “effect on HDAC10 deacetylase activity” value on HDAC10 is “without effect”.
